Source: patent US20080139520A1, “Altering cholesterol and fat uptake by novel allosteric inhibitors of pancreatic phospholipase A2” (priority 2006, published 2008)
Values joined by “and” are separate entries in the source; they are usually repeats but may differ in a detail not shown here. Identical values can stand only once. Like-named read-outs stand apart in the source and are kept apart here. Blank lines part the entries; values can stand above or below the molecule they belong to.

Assays:
Wild-Type PLA2 = molecular target: T1, Wild-Type PLA2 (Sus scrofa, UniProt P00592); experiment: Decylsulfate binding to wild-type PLA2 (3W), Trp emission; set-up: species or system pig
T1 construct: made in house
Procedure: (§1) Fluorescence emission spectrum or time course of the intensity change from tryptophan or the resonance energy transfer probe TMA-DPH were measured in the ratio mode on SLM-Aminco AB2 in a 1 cm cuvette [31, 32] in 1.6 ml stirred buffer containing 1 or 2 μM PLA2 in 10 mM Tris, 5 mM CaCl2 and 20 mM NaCl at pH 8.0 and 24° C. The slit-widths were 4 nm with excitation at 280.
(§2) For example, as summarized in Table 3, the main effect of the presence of bile salt is on the Trp-signal intensities rather than the dissociation constant for decylsulfate.

PLA2 W3F/R6W mutant = molecular target: T2, PLA2 W3F/R6W mutant (Sus scrofa, UniProt P00592, R28W/W25F); experiment: Decylsulfate binding to W3F/R6W mutant PLA2 (6W), Trp emission; set-up: species or system pig
T2 construct: made in house
Procedure: as §1, §2

pig pancreatic IB PLA2 = molecular target: T3, pig pancreatic IB PLA2 (Sus scrofa, UniProt P00592); experiment: Rate-lowering of hydrolysis of DMPC + 0.05 mole fraction cholate vesicles by pig pancreatic PLA2; assay type: biochemical; conditions: for Relative Rate-lowering (%) Activity, pPLA2: 0.03 mole fraction, DMPC + 0.05 mole fraction cholate
T3 construct: made in house
Text: (§3) Independent support for selective binding of the rate lowering compounds to a regulatory site on PLA2 comes from the rate-lowering effect of such compounds on the hydrolysis of DMPC vesicles containing 0.05 mole fraction cholate.
(§4) Scores of other compounds in guggul were not active.

[1] = reported in literature [54-56]; cited from earlier work
human pancreatic IB PLA2 = molecular target: T4, human pancreatic IB PLA2 (Homo sapiens, UniProt P04054); experiment: Rate-lowering of hydrolysis of DMPC + 0.05 mole fraction cholate vesicles by human pancreatic PLA2; assay type: biochemical; conditions: 0.03 mole fraction; DMPC + 0.05 mole fraction cholate
T4 construct: gift of Dr. Suren Tatulian (Orlando, Fla.)
Text: as §3, §4

WT (wild type) pig PLA2 = molecular target: T5, WT (wild type) pig PLA2 (Sus scrofa, UniProt P00592); experiment: PLA2 catalyzed hydrolysis of sonicated DMPC vesicles with added bile salt (pH-stat); assay type: biochemical; conditions: DMPC vesicles, pancreatic PLA2
T5 construct: made in house
Procedure: Aqueous dispersion of phospholipid was sonicated in a bath type sonicator. Virtually transparent suspension was annealed for at least 4 hours at room temperature before use. Reaction progress for the PLA2 catalyzed hydrolysis of sonicated DMPC (1 mM) vesicles was measured by pH-stat titration (Radiometer) with 1 mM 2-aminopropanediol in 4 ml reaction buffer containing 5 mM CaCl2 for DMPC (or 0.5 mM for DMPM), 1 mM NaCl, […] atmosphere. Reaction was initiated by adding 0.1 μg enzyme in 1-10 μl solution. The pH stat method was also used for monitoring the rate of hydrolysis of DMPM (0.4 mM) vesicles in the presence of polymyxin [27-29], or of the mixed-micelles of POPC with bile salts in 1:2 ratio [13, 30].
Delay before the onset of the stationary phase of the PLA2 catalyzed reaction progress for the hydrolysis of zwitterionic phospholipids has been extensively characterized. […] The apparent rates in FIG. 3 were obtained from the initial slopes of such reaction progress during which <5% of the total substrate is hydrolyzed.
The CMC of the bile salts used in this study range between 0.8 to 5 mM.

T1 sequence (P00592 23-146): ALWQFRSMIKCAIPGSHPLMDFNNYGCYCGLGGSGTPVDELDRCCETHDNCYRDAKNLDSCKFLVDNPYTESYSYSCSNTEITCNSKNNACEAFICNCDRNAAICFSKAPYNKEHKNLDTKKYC
T3 sequence (P00592 23-146): as above
T2 sequence (P00592 23-146 W25F/R28W): as the sequence (P00592 23-146) above, with W3F, R6W counted along it
T4 sequence (P04054 23-148): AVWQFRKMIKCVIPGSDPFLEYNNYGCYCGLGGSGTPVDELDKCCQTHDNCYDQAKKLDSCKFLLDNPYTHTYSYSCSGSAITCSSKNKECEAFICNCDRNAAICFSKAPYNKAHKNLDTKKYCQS
T5 sequence (P00592 23-146): as the sequence (P00592 23-146) above

Compound: CCCCCCCCCCOS(=O)(=O)O [Decylsulfate]
a1 decylsulfate binding (Wild-Type PLA2; 3W + 0.2 mM TCDOC): −0.03
a2 decylsulfate binding (Wild-Type PLA2; 3W + 0.2 mM TCDOC): −0.07
n2 decylsulfate binding (Wild-Type PLA2; 3W + 0.2 mM TCDOC): 6
Kd (Wild-Type PLA2; 3W + 0.2 mM TCDOC, read-out: K2^# decylsulfate binding): 540 µM
a1 decylsulfate binding (Wild-Type PLA2; 3W + Chol (0.2 mM cholate)): 0.10
n1 decylsulfate binding (Wild-Type PLA2; 3W + Chol (0.2 mM cholate)): 1.5
Kd (Wild-Type PLA2; 3W + Chol (0.2 mM cholate), read-out: K1^# decylsulfate binding): 50 µM
a1 decylsulfate binding (Wild-Type PLA2; 3W, no additive): 0.26
a2 decylsulfate binding (Wild-Type PLA2; 3W, no additive): 0.56
n1 decylsulfate binding (Wild-Type PLA2; 3W, no additive): 1.8 and 1.7
n2 decylsulfate binding (Wild-Type PLA2; 3W, no additive): 8
Kd (Wild-Type PLA2; 3W, no additive, read-out: K1^# decylsulfate binding): 60 µM
Kd (Wild-Type PLA2; 3W, no additive, read-out: K2^# decylsulfate binding): 650 µM
a1 decylsulfate binding (PLA2 W3F/R6W mutant; 6W): −0.07
a2 decylsulfate binding (PLA2 W3F/R6W mutant; 6W): −0.36
n1 decylsulfate binding (PLA2 W3F/R6W mutant; 6W): 2.7
n2 decylsulfate binding (PLA2 W3F/R6W mutant; 6W): 2.5
a1 decylsulfate binding (PLA2 W3F/R6W mutant; 6W + 0.2 mM TCDOC): −0.09
a2 decylsulfate binding (PLA2 W3F/R6W mutant; 6W + 0.2 mM TCDOC): −1.1
n2 decylsulfate binding (PLA2 W3F/R6W mutant; 6W + 0.2 mM TCDOC): 2.0
Kd (PLA2 W3F/R6W mutant; 6W + 0.2 mM TCDOC, read-out: K2^# decylsulfate binding): 650 µM
Kd (PLA2 W3F/R6W mutant; 6W, read-out: K1^# decylsulfate binding): 50 µM
Kd (PLA2 W3F/R6W mutant; 6W, read-out: K2^# decylsulfate binding): 510 µM

Compound: O=C1[C@H](CC[C@H](O)c2ccc(F)cc2)[C@@H](c2ccc(O)cc2)N1c1ccc(F)cc1 [Ezetimibe]
Relative Rate-lowering (%) Activity, pPLA2 (pig pancreatic IB PLA2): 30%
relative effectiveness in lowering the rate with pig pancreatic PLA2 (pig pancreatic IB PLA2; DMPC vesicles containing 0.05 mole fraction cholate, FIG. 6): more effective
reported side effects [1]: hepatotoxicity, cholestatic hepatitis, acute autoimmune hepatitis, myopathy, and modulation of monocytic raft assembly
Relative Rate-lowering (%) Activity, hPLA2 (human pancreatic IB PLA2): 5%

Compound: C[C@H](CCC(=O)NCC(=O)O)[C@H]1CC[C@H]2[C@@H]3CC[C@@H]4C[C@H](O)CC[C@]4(C)[C@H]3C[C@H](O)[C@]12C [GDOC, glycodeoxycholate]
effect of bile salt on the rate of hydrolysis (monophasic/biphasic) (WT (wild type) pig PLA2): biphasic effect

Continued, values first:

Relative Rate-lowering (%) Activity, pPLA2 (pig pancreatic IB PLA2): 90%
Relative Rate-lowering (%) Activity, hPLA2 (human pancreatic IB PLA2): 56%
Compound: CC=C1C(O)C[C@H]2[C@@H]3CCC4=CC(=O)CC[C@]4(C)[C@H]3CC[C@]12C (some centres unmarked) [Gugguloster-3-one-16-ol]

Relative Rate-lowering (%) Activity, pPLA2 (pig pancreatic IB PLA2): 85%
Relative Rate-lowering (%) Activity, hPLA2 (human pancreatic IB PLA2): 53%
Compound: C/C=C1\C(=O)C[C@H]2[C@@H]3CCC4=CC(=O)CC[C@]4(C)[C@H]3CC[C@]12C [Guggulosterone]
